Reference: patent US20190264193A1, “PROTEIN ENGINEERING METHODS” (Caribou Biosciences, Inc., priority 2016, published 2019)

Key:
DNA-PK [1] = molecular target: T1, DNA-PK (Homo sapiens, UniProt P78527); assay: NU7441 five point dose response on DNA repair patterns after sgRNP nucleofection; type: cell-based; details: HEK293 T cells
Method: In order to assess whether compounds can alter the DNA repair pathways, the following experiment was conducted with methods as described in van Overbeek et al., Molecular Cell (2016) http://dx.doi.org/10.1016/j.molcel.2016.06.037. Briefly, to test the hypothesis that suppression of c-NHEJ would alter the DNA repair landscapes, favoring MMEJ repair outcomes, a chemical inhibitor of DNA-PK, NU7441, was added to HEK293 T cells one hour post nucleofection in a five point dose response. Genomic lysate was harvested 48 hours post nucleofection and processed.
As inhibitor concentration increased, the mean frequency of single base insertions and small deletions (<3 base pairs) decreased, whereas the mean frequency of a subset of large deletions (>3 base pairs) present in the DNA repair profiles increased. This experiment evidences that the suppression of c-NHEJ enhances DNA repair by MMEJ pathways after DSB formation by Cas9.

DNA-PK [2] = molecular target: T1, DNA-PK; assay: DNA repair outcomes after Cas9 cleavage by amplicon sequencing, HEK293 plus NU7441; type: cell-based; details: JAK1 target site; 48 hours after nucleofection of sgRNP in HEK293 plus NU7441 (FIG. 6F)
Method: In order to assess DNA repair outcomes in human cells, the following experiment was conducted using methods as described in van Overbeek et al., Molecular Cell (2016) http://dx.doi.org/10.1016/j.molcel.2016.06.037. Briefly, the repair outcomes following Cas9 cleavage of double-stranded DNA, which result in blunt end products, were profiled using computational tools developed to categorize indels from a cell-based assay. To this end, HEK293, K562 and CCRF-CEM cells were transfected with pre-assembled complexes of Cas9 protein and sgRNA (single-guide RNA ribonucleoprotein complexes (sgRNPs). The Cas9/sgRNA complexes used were prepared as described in van Overbeek et al., Molecular Cell (2016) http://dx.doi.org/10.1016/j.molcel.2016.06.037. DNA repair patterns following Cas9 cleavage were analyzed by amplicon sequencing at time points as shown in FIGS. 6A-6F.
Sequencing reads were assigned to a specific indel class based on the indel type (insertion or deletion), start site, and length (or to the wild-type class), and then the frequency of each class was calculated as a fraction of aligned reads or as a fraction of mutant reads. […]

[3] = as inhibitor concentration increased

T1 sequence (P78527 whole entry): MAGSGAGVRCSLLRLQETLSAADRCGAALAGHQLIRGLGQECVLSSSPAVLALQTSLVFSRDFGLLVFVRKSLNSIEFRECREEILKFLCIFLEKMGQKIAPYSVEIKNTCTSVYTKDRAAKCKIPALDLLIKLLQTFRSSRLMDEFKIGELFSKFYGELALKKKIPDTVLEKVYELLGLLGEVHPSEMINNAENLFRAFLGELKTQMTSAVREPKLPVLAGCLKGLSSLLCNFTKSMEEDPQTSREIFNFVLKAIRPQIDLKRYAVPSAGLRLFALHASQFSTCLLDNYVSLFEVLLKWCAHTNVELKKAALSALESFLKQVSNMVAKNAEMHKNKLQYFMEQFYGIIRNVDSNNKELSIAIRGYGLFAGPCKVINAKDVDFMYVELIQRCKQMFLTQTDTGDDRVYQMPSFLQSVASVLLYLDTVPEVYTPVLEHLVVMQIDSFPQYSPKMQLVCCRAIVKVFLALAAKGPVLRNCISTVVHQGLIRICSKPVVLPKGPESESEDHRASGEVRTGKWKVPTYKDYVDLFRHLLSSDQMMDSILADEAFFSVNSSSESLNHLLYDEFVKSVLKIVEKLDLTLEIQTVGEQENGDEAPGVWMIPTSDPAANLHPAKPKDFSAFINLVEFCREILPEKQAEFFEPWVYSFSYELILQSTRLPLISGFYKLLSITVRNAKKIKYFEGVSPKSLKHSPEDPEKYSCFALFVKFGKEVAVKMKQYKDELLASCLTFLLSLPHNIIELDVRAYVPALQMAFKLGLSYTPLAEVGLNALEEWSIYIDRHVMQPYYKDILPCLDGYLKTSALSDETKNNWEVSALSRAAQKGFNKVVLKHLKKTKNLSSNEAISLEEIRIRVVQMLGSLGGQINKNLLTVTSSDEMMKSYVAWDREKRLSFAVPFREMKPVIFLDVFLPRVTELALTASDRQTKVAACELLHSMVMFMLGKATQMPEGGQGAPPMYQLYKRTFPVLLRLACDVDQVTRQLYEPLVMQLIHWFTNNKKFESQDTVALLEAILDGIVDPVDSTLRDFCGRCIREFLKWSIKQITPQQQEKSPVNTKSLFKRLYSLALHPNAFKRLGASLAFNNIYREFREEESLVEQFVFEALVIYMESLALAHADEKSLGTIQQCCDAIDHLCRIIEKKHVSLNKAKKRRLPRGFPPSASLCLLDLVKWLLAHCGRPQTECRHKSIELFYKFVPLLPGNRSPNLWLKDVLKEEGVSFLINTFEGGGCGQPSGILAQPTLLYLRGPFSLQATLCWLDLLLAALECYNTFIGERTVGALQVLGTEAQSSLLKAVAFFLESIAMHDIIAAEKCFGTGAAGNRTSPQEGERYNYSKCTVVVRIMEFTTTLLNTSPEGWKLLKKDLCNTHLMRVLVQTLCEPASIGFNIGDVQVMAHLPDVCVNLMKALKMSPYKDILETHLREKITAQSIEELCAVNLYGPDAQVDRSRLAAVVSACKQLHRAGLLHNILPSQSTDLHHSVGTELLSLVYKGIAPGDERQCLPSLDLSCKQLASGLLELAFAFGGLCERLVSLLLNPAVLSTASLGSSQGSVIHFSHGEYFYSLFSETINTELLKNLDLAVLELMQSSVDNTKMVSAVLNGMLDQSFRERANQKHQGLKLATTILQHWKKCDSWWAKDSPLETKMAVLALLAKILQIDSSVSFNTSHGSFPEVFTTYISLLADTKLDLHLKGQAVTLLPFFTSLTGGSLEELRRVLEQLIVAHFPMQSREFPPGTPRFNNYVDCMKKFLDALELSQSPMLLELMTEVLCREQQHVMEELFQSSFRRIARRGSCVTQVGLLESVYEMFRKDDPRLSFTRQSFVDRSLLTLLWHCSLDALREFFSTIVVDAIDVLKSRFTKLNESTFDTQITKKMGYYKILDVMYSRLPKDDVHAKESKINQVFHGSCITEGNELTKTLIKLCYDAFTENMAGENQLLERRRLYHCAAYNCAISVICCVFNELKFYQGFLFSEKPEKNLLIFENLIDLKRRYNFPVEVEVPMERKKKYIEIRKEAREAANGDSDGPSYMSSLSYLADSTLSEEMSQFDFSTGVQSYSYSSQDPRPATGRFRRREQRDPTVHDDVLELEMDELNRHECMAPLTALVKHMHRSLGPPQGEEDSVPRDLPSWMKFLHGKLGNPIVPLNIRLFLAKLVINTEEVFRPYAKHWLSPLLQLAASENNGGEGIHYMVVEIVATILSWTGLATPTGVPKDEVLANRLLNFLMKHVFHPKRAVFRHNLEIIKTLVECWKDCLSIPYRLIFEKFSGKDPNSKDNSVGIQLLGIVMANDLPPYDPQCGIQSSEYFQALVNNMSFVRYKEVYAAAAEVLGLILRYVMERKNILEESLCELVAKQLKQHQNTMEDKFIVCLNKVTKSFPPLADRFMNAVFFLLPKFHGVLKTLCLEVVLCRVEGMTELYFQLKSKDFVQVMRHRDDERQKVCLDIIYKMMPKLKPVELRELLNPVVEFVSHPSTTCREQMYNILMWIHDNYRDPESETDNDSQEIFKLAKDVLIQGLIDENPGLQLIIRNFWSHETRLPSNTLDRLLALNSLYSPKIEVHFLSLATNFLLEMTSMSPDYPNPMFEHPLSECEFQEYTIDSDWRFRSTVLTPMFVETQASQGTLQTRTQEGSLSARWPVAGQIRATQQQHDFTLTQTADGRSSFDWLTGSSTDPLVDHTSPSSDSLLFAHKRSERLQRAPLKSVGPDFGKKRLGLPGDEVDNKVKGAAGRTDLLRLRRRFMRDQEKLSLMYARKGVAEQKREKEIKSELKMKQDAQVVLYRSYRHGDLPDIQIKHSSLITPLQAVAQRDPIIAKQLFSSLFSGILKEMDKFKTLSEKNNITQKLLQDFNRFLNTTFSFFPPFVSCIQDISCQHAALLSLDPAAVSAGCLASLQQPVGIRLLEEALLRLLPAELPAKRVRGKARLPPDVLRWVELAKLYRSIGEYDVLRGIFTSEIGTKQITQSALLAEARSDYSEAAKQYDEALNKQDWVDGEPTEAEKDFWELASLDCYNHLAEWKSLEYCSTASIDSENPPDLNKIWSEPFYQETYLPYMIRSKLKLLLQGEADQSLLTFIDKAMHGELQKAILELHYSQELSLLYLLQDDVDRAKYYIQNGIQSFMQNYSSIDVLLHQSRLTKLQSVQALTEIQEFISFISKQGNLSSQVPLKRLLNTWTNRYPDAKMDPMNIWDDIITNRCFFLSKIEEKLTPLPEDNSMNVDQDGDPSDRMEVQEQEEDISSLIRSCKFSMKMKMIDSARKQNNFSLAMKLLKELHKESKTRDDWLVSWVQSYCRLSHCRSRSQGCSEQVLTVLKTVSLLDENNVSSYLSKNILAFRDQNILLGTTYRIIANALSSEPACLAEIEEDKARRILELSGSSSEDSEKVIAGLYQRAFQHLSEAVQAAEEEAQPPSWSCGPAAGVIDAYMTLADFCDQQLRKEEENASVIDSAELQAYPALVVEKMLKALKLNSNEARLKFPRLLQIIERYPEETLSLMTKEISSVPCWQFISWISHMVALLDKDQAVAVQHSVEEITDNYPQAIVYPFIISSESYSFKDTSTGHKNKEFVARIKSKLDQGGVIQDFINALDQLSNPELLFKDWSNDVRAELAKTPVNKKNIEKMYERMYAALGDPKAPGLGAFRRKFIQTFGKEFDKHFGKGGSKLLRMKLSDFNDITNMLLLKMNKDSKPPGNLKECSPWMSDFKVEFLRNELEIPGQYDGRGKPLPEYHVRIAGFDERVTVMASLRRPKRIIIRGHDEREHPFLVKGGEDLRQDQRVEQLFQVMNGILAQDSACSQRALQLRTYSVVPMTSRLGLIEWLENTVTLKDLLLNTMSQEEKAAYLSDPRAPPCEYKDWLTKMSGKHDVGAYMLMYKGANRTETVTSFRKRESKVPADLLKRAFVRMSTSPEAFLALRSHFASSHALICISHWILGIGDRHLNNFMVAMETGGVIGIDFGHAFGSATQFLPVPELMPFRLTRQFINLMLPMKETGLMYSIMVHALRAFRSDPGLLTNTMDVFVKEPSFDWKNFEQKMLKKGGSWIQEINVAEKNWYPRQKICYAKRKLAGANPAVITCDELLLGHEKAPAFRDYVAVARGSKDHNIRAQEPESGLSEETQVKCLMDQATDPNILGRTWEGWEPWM

`O=c1cc(N2CCOCC2)oc2c(-c3cccc4c3sc3ccccc34)cccc12` [NU7441] was tested, and the “mean frequency of a subset of large deletions (>3 base pairs)” value (DNA-PK [1]; [3]) was “increased”, the “mean frequency of single base insertions and small deletions (<3 base pairs)” value (DNA-PK [1]; [3]) was “decreased” and the “change of the DNA repair patterns compared with untreated samples” value (DNA-PK [1]; lowest concentration of inhibitor 1.56 μM, 12 different target sites, added one hour post nucleofection, harvested 48 hours) was “a change of the DNA repair patterns at 12 different target sites compared with untreated samples was apparent”. For the same molecule, the “DNA repair outcomes (classes and frequency) compared with FIG. 6A (HEK293 without inhibitor)” value (DNA-PK [2]) was “different DNA repair outcomes”.
